Data published in ChEMBL document CHEMBL1201862, “PubChem BioAssay data set” (2004).
Active and inactive are the calls of the source.

Tests used:
Escherichia coli [1] = assay: microbe, parasite or virus in culture
[2] = target: Delta-type opioid receptor (Homo sapiens, UniProt P41143); assay: Counterscreen for agonists of heterodimerization of the mu 1 (OPRM1) and delta 1 (OPRD1) opioid receptors: Luminescence-based cell-based high throughput dose response assay to identify agonists of OPRD1 homodimerization. [Related pubchem assays (depositor defined):AID504326, AID504355, AID504692, AID504904, AID504905]; format: functional
Delta-type opioid receptor, sequence (P41143 whole entry): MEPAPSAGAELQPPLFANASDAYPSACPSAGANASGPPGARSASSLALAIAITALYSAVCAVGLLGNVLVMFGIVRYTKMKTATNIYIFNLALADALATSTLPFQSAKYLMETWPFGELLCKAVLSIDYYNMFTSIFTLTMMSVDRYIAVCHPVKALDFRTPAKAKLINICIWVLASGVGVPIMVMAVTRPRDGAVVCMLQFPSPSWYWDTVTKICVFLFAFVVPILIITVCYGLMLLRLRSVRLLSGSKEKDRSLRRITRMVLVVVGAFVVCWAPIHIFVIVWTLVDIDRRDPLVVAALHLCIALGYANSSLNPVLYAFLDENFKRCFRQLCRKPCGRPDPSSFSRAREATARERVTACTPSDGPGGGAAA

Mu-type opioid receptor = Mu-type opioid receptor (Homo sapiens, UniProt P35372); assay: Counterscreen for agonists of heterodimerization of the mu 1 (OPRM1) and delta 1 (OPRD1) opioid receptors: Luminescence-based cell-based high throughput dose response assay to identify agonists of OPRM1 homodimerization.; format: functional;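 further: U2OS cells expressing OPRM1 and beta-arrestin as split beta-galactosidase partners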
Mu-type opioid receptor, sequence (P35372 whole entry): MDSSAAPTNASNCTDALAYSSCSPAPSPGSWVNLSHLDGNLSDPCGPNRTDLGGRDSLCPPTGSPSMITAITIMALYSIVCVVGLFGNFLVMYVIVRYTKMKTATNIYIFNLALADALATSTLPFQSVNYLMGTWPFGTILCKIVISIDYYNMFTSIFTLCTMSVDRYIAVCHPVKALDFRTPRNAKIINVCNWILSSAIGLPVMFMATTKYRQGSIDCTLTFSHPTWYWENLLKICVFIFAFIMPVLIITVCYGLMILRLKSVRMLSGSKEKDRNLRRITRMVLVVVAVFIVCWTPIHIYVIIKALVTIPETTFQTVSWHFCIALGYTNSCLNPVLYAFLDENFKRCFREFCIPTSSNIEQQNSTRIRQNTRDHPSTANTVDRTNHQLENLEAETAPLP

[3] = target: 5-hydroxytryptamine receptor 5A (Homo sapiens, UniProt P47898); assay: Counterscreen for agonists of OPRM1-OPRD1 heterodimerization: luminescence-based cell-based high throughput dose response assay to identify agonists of 5-hydroxytryptamine (serotonin) 5A receptor (HTR5A). [Related pubchem assays (depositor defined):AID504326, AID504355, AID504692, AID504904, AID504905]; format: functional
5-hydroxytryptamine receptor 5A, sequence (P47898 whole entry): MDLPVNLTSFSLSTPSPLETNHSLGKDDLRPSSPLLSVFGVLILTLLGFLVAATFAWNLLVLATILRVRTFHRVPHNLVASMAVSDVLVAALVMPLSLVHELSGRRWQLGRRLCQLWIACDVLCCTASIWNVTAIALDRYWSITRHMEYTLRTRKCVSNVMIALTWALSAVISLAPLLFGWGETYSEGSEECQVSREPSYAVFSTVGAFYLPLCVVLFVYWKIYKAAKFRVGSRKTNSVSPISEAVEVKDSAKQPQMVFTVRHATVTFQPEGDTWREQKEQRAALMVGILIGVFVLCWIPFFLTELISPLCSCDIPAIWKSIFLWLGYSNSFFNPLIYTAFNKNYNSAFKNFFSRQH

[4] = target: T1, Short transient receptor potential channel 4 (Mus musculus, UniProt Q9QUQ5); assay: mouse TRPC4 channel inhibitors, dose response, cell-based, HEK293 TRPC4/mu-opioid, Fluo-4 calcium (AID 434942); format: functional;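 further: potency of inhibitors blocking the TRPC4 calcium response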
T1 sequence (Q9QUQ5 whole entry): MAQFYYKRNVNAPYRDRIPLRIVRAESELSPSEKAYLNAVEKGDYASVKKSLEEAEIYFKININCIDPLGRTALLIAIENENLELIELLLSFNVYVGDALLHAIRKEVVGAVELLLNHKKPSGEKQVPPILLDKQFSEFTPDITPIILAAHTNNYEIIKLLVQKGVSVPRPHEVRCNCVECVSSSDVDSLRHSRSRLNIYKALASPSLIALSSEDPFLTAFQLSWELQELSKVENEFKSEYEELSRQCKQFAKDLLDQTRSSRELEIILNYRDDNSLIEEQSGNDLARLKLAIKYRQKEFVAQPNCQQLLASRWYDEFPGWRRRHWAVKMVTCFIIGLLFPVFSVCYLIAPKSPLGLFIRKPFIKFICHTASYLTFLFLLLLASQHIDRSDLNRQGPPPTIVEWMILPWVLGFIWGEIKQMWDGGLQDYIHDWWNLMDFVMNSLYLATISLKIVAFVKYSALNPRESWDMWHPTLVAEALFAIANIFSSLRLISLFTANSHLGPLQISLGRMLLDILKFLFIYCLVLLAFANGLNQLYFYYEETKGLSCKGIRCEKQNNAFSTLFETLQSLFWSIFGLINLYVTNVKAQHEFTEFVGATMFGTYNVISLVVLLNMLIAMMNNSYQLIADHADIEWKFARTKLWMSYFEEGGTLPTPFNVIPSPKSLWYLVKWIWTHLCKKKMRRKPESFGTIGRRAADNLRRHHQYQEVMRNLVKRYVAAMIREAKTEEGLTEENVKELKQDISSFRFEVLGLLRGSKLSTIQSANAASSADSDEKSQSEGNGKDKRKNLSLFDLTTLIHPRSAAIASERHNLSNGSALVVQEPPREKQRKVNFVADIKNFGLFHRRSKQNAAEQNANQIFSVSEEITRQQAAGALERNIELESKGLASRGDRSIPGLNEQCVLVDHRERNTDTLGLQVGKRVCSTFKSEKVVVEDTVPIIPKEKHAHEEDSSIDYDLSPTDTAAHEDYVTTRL

Cytochrome P450 3A4 = Cytochrome P450 3A4 (Homo sapiens, UniProt P08684);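 further: CYP3A4 tested as one member of a cytochrome P450 panel screen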
Cytochrome P450 3A4, sequence (P08684 whole entry): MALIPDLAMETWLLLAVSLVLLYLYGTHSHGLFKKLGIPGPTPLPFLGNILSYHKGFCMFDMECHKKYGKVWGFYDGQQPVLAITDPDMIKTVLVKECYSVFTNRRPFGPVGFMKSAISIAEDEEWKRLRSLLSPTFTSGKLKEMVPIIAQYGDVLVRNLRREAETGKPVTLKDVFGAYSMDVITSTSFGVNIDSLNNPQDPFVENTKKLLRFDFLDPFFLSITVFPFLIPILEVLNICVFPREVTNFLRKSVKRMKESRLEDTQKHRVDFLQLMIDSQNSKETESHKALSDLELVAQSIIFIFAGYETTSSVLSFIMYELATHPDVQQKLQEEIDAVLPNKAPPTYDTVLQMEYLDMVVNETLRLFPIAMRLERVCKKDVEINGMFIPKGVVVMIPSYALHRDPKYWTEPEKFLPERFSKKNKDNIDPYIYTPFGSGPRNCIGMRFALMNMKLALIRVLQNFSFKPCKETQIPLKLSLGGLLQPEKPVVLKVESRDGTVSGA

[5] = target: T2, Endoribonuclease toxin MazF (Escherichia coli K-12, UniProt P0AE70); assay: MazF toxin RNase activators, dose response, biochemical, fluorescence, single-stranded RNA substrate, uHTS hits (AID 588481); format: functional
T2 sequence (P0AE70 whole entry): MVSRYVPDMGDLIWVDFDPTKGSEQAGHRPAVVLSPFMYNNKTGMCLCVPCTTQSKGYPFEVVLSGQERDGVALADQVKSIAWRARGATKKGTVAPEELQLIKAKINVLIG

[6] = target: T2, Endoribonuclease toxin MazF; assay: fluorescent RNA oligo signal without MazF, dose response, counter-screen for MazEF activator project, biochemical, fluorescence, single-stranded RNase substrate (AID 588502); format: functional
Escherichia coli [7] = assay: microbe, parasite or virus in culture; remark: listed apart in the source
Cytochrome P450 2C19 = Cytochrome P450 2C19 (Homo sapiens, UniProt P33261); assay: Cytochrome panel assay with activity outcomes. Panel member name: p450-cyp2c19 Compounds with AC50 equal or less than 10 uM are considered active; format: functional
Cytochrome P450 2C19, sequence (P33261 whole entry): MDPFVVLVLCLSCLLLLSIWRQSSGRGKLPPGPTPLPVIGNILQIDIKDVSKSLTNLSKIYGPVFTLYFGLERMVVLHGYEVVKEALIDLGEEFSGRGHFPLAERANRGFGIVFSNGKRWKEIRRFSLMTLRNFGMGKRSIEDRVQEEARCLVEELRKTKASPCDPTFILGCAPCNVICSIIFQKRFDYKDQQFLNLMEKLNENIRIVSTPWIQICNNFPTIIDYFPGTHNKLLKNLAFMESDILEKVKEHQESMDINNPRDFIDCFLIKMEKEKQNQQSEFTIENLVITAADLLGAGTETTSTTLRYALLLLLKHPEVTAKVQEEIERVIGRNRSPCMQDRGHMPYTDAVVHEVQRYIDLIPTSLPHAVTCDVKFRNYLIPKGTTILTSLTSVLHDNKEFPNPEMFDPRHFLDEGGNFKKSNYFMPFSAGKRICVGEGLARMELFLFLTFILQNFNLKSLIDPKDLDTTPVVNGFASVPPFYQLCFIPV

Cytochrome P450 1A2 = target: T3, Cytochrome P450 1A2 (Homo sapiens, UniProt P05177);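 further: PubChem cytochrome P450 panel assay, CYP1A2 panel member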
T3 sequence (P05177 whole entry): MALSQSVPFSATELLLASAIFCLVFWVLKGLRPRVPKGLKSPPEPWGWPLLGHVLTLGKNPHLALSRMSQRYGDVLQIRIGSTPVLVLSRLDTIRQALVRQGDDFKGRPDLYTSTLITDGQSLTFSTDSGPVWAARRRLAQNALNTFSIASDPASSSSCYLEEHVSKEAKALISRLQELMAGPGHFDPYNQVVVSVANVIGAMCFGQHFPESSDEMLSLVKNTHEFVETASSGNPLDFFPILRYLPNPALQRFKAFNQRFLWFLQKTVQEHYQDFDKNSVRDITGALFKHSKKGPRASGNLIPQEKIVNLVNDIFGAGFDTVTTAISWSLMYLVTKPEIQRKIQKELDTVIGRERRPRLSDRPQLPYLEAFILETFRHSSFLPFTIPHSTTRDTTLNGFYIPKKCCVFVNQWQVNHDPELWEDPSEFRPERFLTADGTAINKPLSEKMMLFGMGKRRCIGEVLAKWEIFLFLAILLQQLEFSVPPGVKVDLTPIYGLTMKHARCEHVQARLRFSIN

Cytochrome P450 2D6 = Cytochrome P450 2D6 (Homo sapiens, UniProt P10635);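 further: CYP2D6 member of a cytochrome P450 panel assay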
Cytochrome P450 2D6, sequence (P10635 whole entry): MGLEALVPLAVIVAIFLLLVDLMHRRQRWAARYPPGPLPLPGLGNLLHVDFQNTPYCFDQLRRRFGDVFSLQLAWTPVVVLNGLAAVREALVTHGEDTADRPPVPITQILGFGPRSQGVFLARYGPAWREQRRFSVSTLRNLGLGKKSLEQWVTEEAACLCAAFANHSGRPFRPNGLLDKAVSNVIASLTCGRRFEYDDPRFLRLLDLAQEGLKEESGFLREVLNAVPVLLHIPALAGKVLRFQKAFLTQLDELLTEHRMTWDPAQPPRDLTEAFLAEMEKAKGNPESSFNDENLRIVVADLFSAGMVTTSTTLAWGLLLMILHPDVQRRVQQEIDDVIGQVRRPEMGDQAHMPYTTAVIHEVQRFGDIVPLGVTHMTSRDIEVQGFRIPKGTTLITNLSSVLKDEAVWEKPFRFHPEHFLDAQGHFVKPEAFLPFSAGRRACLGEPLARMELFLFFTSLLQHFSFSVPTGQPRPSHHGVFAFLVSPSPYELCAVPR

Cytochrome P450 2C9 = Cytochrome P450 2C9 (Homo sapiens, UniProt P11712)
Cytochrome P450 2C9, sequence (P11712 whole entry): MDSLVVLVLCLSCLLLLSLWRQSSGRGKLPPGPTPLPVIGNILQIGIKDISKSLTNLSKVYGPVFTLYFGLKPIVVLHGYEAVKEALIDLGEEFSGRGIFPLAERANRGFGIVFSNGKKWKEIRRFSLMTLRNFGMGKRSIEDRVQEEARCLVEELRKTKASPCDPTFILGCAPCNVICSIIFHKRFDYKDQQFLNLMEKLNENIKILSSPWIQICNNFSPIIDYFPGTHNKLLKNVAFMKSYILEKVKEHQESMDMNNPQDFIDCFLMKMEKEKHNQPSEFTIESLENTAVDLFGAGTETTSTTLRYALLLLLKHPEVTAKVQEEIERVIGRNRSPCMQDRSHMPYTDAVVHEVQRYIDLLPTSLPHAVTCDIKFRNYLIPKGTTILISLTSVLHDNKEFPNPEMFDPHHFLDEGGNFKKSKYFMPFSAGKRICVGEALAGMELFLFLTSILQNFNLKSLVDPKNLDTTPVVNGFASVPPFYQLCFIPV

O=C(N/N=C/C1=C(N2CCOCC2)C(=C\c2ccccc2)/CC1)Nc1ccccc1
AC50 (Escherichia coli [1]): 67.6 µM (active)

OC(CNCCC(c1ccccc1)c1ccccc1)COc1ccccc1 (stereo not drawn)
EC50 [2]: > 92.5 µM (inactive) | EC50 (Mu-type opioid receptor): > 92.5 µM (inactive) | EC50 [3]: > 92.5 µM (inactive)

c1ccc(NC(=NCc2ccco2)c2ccccc2)cc1
EC50 [4]: 18.8 µM (active) | AC50 (Escherichia coli [1]): 47.6 µM (active)

N#Cc1cccc(-c2nc3cnc(Oc4cccc(Cl)c4)nc3n(C3CC3)c2=O)c1
AC50 (Cytochrome P450 3A4): inconclusive

COc1ccc(NC(=O)CN(C)S(=O)(=O)c2ccccc2)c([N+](=O)[O-])c1
EC50 [5]: > 99 µM (inactive) | EC50 [6]: > 99 µM (inactive)

COc1cccc(-c2cc(C(=O)N3CCc4ccccc4C3)[nH]n2)c1
EC50 [5]: > 99 µM (inactive) | EC50 [6]: > 99 µM (inactive)

CCOC(=O)N1CCC(NC(=O)c2oc3c(c2C)-c2n[nH]cc2CC3)CC1
AC50 (Escherichia coli [7]): 18.4 µM (active) | AC50 (Escherichia coli [1]): 67 µM (active)

N[C@@H](CCC(=O)O)C(=O)O [GLUTAMIC ACID]
AC50 (Cytochrome P450 2C19): inactive | AC50 (Cytochrome P450 1A2): 39.8 µM (inconclusive) | AC50 (Cytochrome P450 2D6): inactive | AC50 (Cytochrome P450 3A4): inactive | AC50 (Cytochrome P450 2C9): inactive
